{"source": "patent US10160791B2", "about": "“Protamine in treatment of neuronal injuries” (UNIVERSITY OF HELSINKI, priority 2013, dated 2018)", "key": {"wild type RPTPσ": {"tested_on": "wild type RPTPσ", "assay": "RPTPσ binding assay (ELISA, biotinylated aggrecan), wild type RPTPσ", "set-up": "species or system mouse", "conditions": "FIG. 4", "source_text": "(§1) Protamine (salmon) and protamine sulphate (herring) were from Sigma, protamine sulphate (salmon) was from Leo Pharma. Bovine aggrecan was from Sigma. The DNA sequence (the template cDNA clone MGC:63375 IMAGE:6834684) of the CSPG-binding domain of mouse RPTPσ was used for Fc-tagged RPTPσ protein production. Peptides derived from the protamine sequence were custom synthesised by CASLO ApS (Denmark).\n(§2) The Fc-tagged extracellular domain of RPTPσ was immobilized on protein G-coated plates. Binding of biotinylated aggrecan to RPTPσ was quantified via colorimetric assay using streptavidin-conjugated horse radish peroxidise. Experiments were done by using protein G coated 96 well plates (Pierce, prod. #15133). Wells were first washed briefly with PBS, 0.05% Tween-20 solution. RPTPσ wild type and mutant FC-fusion proteins were diluted into 2 μg/ml solution in buffer containing PBS, 1% BSA, 0.05% Tween-20. 150 μl of protein solution was added into the wells and plates were left for shaking at +RT for 1 hour. […] Detection of bound Streptavidin-Peroxidase Polymer was done by adding 200 μl of OPD (o-Phenylenediamine dihydrochloride, SIGMA P9187) substrate into the wells and was measured by reading the absorbance at 450 nm (A450).\n(§3) Aggrecan binding to RPTPσ was assessed via ELISA using Fc-tagged RPTPσ and biotinylated aggrecan. Binding was quantified using streptavidin-bound horse radish peroxidase. […]"}, "[1]": {"tested_on": "Mutant RPTPσ, with a defective CSPG-binding site", "assay": "RPTPσ binding assay (ELISA, biotinylated aggrecan), mutant RPTPσ", "set-up": "species or system mouse", "conditions": "negative control, biotinylated aggrecan 5 μg/ml, protamine 0-5 μg/ml", "source_text": "as §1, §2, §3"}, "[2]": {"tested_on": "embryonic rat cortical neurons", "assay": "Neurite outgrowth assay on aggrecan-coated substrate, cortical neurons", "assay_type": "cell-based", "conditions": "E17 rat cortical neurons, plates precoated with aggrecan 10 μg/ml, cultured 1.5-3.5 days", "procedure": "(§4) Cortical or hippocampal neurons from E17 rat embryos were plated at 50,000 cells/cm2 on plastic cell culture plates. Plates were precoated with aggrecan or IgG (10 μg/ml). Protamine, or derived peptides, were precoated together with aggrecan or added to culture medium when plating neurons. Cells were cultured for 1.5-3.5 days and after that images of cell cultures were taken using phase contrast microscope with ×20 objective. Neurite length was quantified using ImagePro software. Mouse neurons were immunostained with anti-tubulin βIII antibodies and imaged using fluorescent microscope."}, "[3]": {"tested_on": "embryonic rat hippocampal neurons", "assay": "Neurite outgrowth assay on aggrecan-coated substrate, hippocampal neurons", "assay_type": "cell-based", "conditions": "E17 rat hippocampal neurons, plates precoated with aggrecan 10 μg/ml", "procedure": "as §4"}, "[4]": {"tested_on": "mice with spinal cord hemisection", "assay": "Cylinder test of limb use asymmetry after spinal cord hemisection", "assay_type": "in vivo, mouse", "conditions": "intracerebroventricular injection, compared to vehicle", "procedure": "(§5) Animals were anaesthetized with a intraperitoneal mixture of Ketaminol (2 mg/20 g body weight, Intervet) and Rompun (0.25 mg/20 g body weight, Bayer). After laminectomy at C5 vertebral level, the dura was carefully removed. The right cervical spinal hemicord was transected with a 25G syringe needle from midline dorsal vessel to the lateral side. Bleeding was controlled with haemostatic gelatin sponge. Muscle and skin were sutured with 6-0 monocryl. 30 min before surgery and during following 3 days mice were treated with antibiotic Borgal (30 mg/kg, Intervet). Body weight and bladder expression were checked for 7 days, and animal received Rimadil (5 mg/kg, Pfizer) and Rapidexon (0.2 mg/kg, Evrovet) to control pain and inflammatory swelling until they stop to lose body weight.\nCylinder Test of Limb Use Asymmetry. Mouse was placed to glass cylinder 10 cm in diameter and 14 cm high. Mirror was position at the angle behind of cylinder for better observation. […] The number of rearing in which mouse used right (impaired), left or both limbs for support against the wall were measured. Paw preference were calculated as ratio of total number of left limb use (left+both) to total number of right (impaired) limb use (right+both).\n(§6) Statistic. Data obtained from Vertical screen test were analyzed by one-way ANOVA followed by post-hoc Newman-Keuls test for detection of group differences. […]"}, "[5]": {"tested_on": "mice with spinal cord hemisection", "assay": "Vertical screen test after spinal cord hemisection", "assay_type": "in vivo, mouse", "conditions": "intracerebroventricular injection, compared to vehicle", "procedure": "as §5\nVertical screen (VS). The mouse was placed on a very brink of horizontal wire screen (25×22 cm, diameter of wires 2 mm spaced at 1 cm) faced to edge. Immediately after that the screen was turned vertically to place mouse to upside down position at the lower edge. The time that animal was needed to climb to the upper edge were measured during 1 min. This test was repeated every second week starting from 1st week after surgery.\nas §6"}}, "note": "Entries after “also recorded” stand apart in the source; their conditions may differ.", "data": [{"sequence": "MPRRRRSSSRPVRRRRRPRVSRRRRRRGGRRRR (Genus/Species name of salmon disclosed by SEQ ID NO 1 is not known) [Protamine, small arginine-rich nuclear protein, from Sigma]", "values": [{"measurement": "amount of aggrecan binding to RPTPσ (in words)", "setting": "wild type RPTPσ", "value": "increases the amount of aggrecan binding to RPTPσ"}, {"measurement": "aggrecan binding to mutant RPTPσ", "setting": "[1]", "value": "not affected"}, {"measurement": "neuronal attachment and neurite growth on the aggrecan-coated substrate", "setting": "[2]", "value": "overcomes the inhibitory action of aggrecan, promoting neuronal attachment and neurite growth; also recorded: overcame this inhibitory action of aggrecan, promoting neuronal attachment and neurite growth; also recorded: active as both the free protein and as sulphate salt"}]}, {"sequence": "SRPVRRRRRPRVS [Peptide 3]", "values": [{"measurement": "neuronal attachment and neurite growth on the aggrecan-coated substrate", "setting": "[3]", "value": "overcomes the inhibitory action of aggrecan, promoting neuronal attachment and neurite growth"}]}, {"sequence": "SRPVRRRRRPRVSRRRRRRGGRRRR [Peptide 2]", "values": [{"measurement": "neuronal attachment and neurite growth on the aggrecan-coated substrate", "setting": "[2]", "value": "overcome the inhibitory action of aggrecan, promoting neuronal attachment and neurite growth; also recorded: displayed activity"}]}, {"sequence": "VSRRRRRRGGRRRR [Peptide 12]", "values": [{"measurement": "limb usage on the affected side (cylinder test)", "setting": "[4]", "value": "improves functional recovery"}, {"measurement": "limb usage on the affected side (cylinder test)", "setting": "[4]; listed as protamine peptide 12", "value": "enhances limb usage on the affected side compared to the vehicle"}, {"measurement": "time used in the vertical climbing test (vertical screen)", "setting": "[5]", "value": "improves functional recovery"}, {"measurement": "time used in the vertical climbing test (vertical screen)", "setting": "[5]; listed as protamine peptide 12", "value": "becomes shortened compared to injection of the vehicle only"}, {"measurement": "neuronal attachment and neurite growth on the aggrecan-coated substrate", "setting": "[2]", "value": "overcome the inhibitory action of aggrecan, promoting neuronal attachment and neurite growth; also recorded: displayed activity"}]}]}
